The numbers were not newly measured in patent US7358271B2, “Sulpiride pharmaceutical compositions” (Williamsburg Holdings LLC, priority 2003, dated 2008), which cites them from elsewhere.

The conditions of data set [1]: healthy volunteers, oral.
The conditions of data set [2]: compared with physiological pH.
The conditions of data set [3]: oral formulations.

Where two headings read alike, the source gives them in different places.

In the case of `CCN1CCCC1CNC(=O)c1cc(S(N)(=O)=O)ccc1OC` (stereo not shown) [sulpiride, N-(1-Ethyl-pyrrolidin-2-ylmethyl)-2-methoxy-5-sulfamoyl-benzamide], the values for the bioavailability in data set [1] (after food) and in data set [1] (without food) were 27% and 20%, respectively. For the same compound, the pKa result in data set [2] is reported as “lower than physiological pH”. Moreover, the “absorption in the gastrointestinal tract” value in data set [3] is recorded as approximately 30%.

What is called bioavailability is the share of a dose that reaches the circulation, judged against a reference dose that is usually intravenous.
